This note sets out measurements from ChEMBL document CHEMBL4346757, “Synthesis and biological evaluation of 7-methoxy-1-(3,4,5-trimethoxyphenyl)-4,5-dihydro-2H-benzo[e]indazoles as new colchicine site inhibitors” (Bioorg Med Chem Lett, 2019).

The test system of one test is HCT-116. Kind of test: Antiproliferative activity against human HCT116 cells assessed as reduction in cell viability by MTT assay. The format is functional, cell-based. On the technique in general: Tetrazolium assays rely on reduction of a dye to a coloured formazan, in cell work by metabolically active cells.
For the next test, the target named is Tubulin (Bos taurus, UniProt Q6B856+Q862L2+Q862F3). Kind of test: Inhibition of bovine brain tubulin polymerization measured every 1 min for 60 mins by turbidimetry based microplate reader analysis.
In the next test the test system is COLO 205. Briefly: Antiproliferative activity against human COLO205 cells assessed as reduction in cell viability by MTT assay. The format is functional, cell-based.

By IC50 is commonly meant the concentration at which inhibition is half-maximal. Turning to `COc1ccc2c(c1)CCc1nn(C)c(-c3cc(OC)c(OC)c(OC)c3)c1-2`, the IC50 is 1 nM with HCT-116, 1500 nM against Tubulin and 19 nM in the test with COLO 205.
As to `COc1ccc(/C=C\c2cc(OC)c(OC)c(OC)c2)cc1O` [COMBRETASTATIN A4], the IC50 in the test with HCT-116 and in the test with COLO 205 was 1 nM each time.
Turning to `CCOC(=O)Cn1nc2c(c1-c1cc(OC)c(OC)c(OC)c1)-c1ccc(OC)cc1CC2`, the IC50 in the test on HCT-116 was > 10000 nM; against Tubulin, > 10000 nM; in the test with COLO 205 it was 8240 nM.
In the case of `COc1ccc2c(c1)CCc1nn(CCO)c(-c3cc(OC)c(OC)c(OC)c3)c1-2`, the values for the IC50 in the test on HCT-116, at Tubulin and with COLO 205 were 1200 nM, > 10000 nM and 560 nM, respectively.
As for `COc1ccc(-c2[nH]nc3c2-c2cc(OC)c(OC)c(OC)c2CC3)cc1`, the IC50 came out at 6600 nM at Tubulin (read-out: IC50) and 37 nM in the test with COLO 205.
With `COc1ccc2c(c1)CCc1nn(-c3ccccc3)c(-c3cc(OC)c(OC)c(OC)c3)c1-2`, the IC50 with HCT-116 was 5240 nM; at Tubulin, > 10000 nM; in the test with COLO 205 it was > 10000 nM.
